Our source for the melting point values is a melting point compilation (Tetko et al.; mined from patent text by program, amines drawn as free bases though some values may be those of a salt).

In general, melting point refers to the temperature, or range, at which the solid turns liquid.

In the case of `COc1cc2[nH]c(=O)c(C(=O)O)nc2cc1-n1ccc(CNC(=O)Nc2ccc(C(=O)O)cc2)c1`, the melting point is above 300 °C. In turn, `CCC1CC2=CC(O)CCC2C2CCC3(C)C(O)CCC3C12` (stereo not drawn) gave a melting point of 93 to 95 °C.

Consider `CC(C)(C)c1ccc(O[C@@H]2CCC[C@H]2O)c(C(C)(C)C)c1` (relative stereo), for which the melting point was 112 °C. In turn, `Cc1ncnn1-c1ccc(N)cc1F` showed a melting point of 106 to 108 °C.

As for `Cn1c2ccc(C=O)cc2c2nc3ccccc3nc21`, the melting point fell in the range of 228 to 230 °C. For `CC(=O)NCCC1CCc2ccc3nn(C)c(C)c3c21` (stereo not drawn), the melting point was in the range of 146 to 149 °C. `CCOC(=O)C(=O)C1COc2ccccc2C1=O` (stereo not drawn) came in with a melting point of 73 to 75 °C.

For the compound `COC(=O)[C@H]1O[C@@H](n2cnc3c(Cl)ncnc32)[C@H](OC(C)=O)[C@@H]1N=[N+]=[N-]`, the melting point fell in the range of 94 to 96 °C.

`O=C1Cc2cccc(Oc3cccc(Cl)c3)c2O1` returned a melting point of 105 to 106 °C. Turning to `N#Cc1cnc2cc(/C=C/CCN3CCOCC3)ccc2c1Nc1ccc(Cl)cc1Cl`, the melting point lay in the range of 129 to 131 °C. For `CS(=O)(=O)OCCCc1ccccc1OCc1coc(/C=C/c2ccccc2)n1`, the melting point is 93 to 94 °C. In turn, `Cc1cc(S)n2nc(CC(=O)O)nc2n1` returned a melting point of 253 to 255 °C. Consider `CS(=O)(=O)c1cccc(-c2cn(-c3nc(-c4ccc(C(F)(F)F)cc4)cc(C(F)(F)F)n3)cn2)c1`, for which the melting point was 231 °C. `CCn1cc2c(n1)c(N)nc1cc(OCc3ccccc3)ccc12` came in with a melting point of 229 to 230 °C.

The compound `CNc1cc(SC2CCN(C)CC2)ccc1[N+](=O)[O-]` came in with a melting point of 90 °C. `CC(=O)Nc1ccc(S(=O)(=O)NCC(O)(Cn2cncn2)c2ccc(Cl)cc2Cl)cc1` (stereo not drawn) displayed a melting point of 232 to 233 °C. `Nc1cccc(S(=O)(=O)NCc2ccncc2)c1` displayed a melting point of 139 °C. In the case of `O=c1c(CO)cc(-c2ccc3c(c2)CCO3)nn1Cc1ccc(Cl)cc1`, the melting point lay within 129 to 134 °C. `CCOC(=O)c1cc(CCc2cc(OC)ccc2OC)ccc1NC(C)=O` came in with a melting point of 93 °C. Then `CC(O)C(C)(C)NC(=S)NC(=O)c1ccccc1` (stereo not drawn), with 136 to 138 °C. Compound `C=CC=CCC1=C(C)C(OC(=O)C2C(C=C(C)C)C2(C)C)CC1=O` (stereo not drawn) returned a melting point of 57 °C. On to `CCN1CCC(O)(c2cc(F)cc(Cl)c2)C1` (stereo not drawn), for which the melting point was in the range of 117 to 118 °C. The compound `CN1CCOC(C2=C(C#N)C(c3cccc(C#N)c3Br)c3c[nH]nc3N2)C1` (stereo not drawn) yielded a melting point of 180 °C. In the case of `CN1C2=C(CSC2)C(=O)Nc2ccccc21`, the melting point is 196 to 198 °C. Then `CCC(C)C1Sc2ccccc2NC1=O` (stereo not drawn), with 99 to 100 °C; and `Sc1nc2cccccc-2n1`, with 300 °C; and `CC1OC(n2c(Cl)c(C#N)c3cc(Cl)c(Cl)cc32)C(O)C1O` (stereo not drawn), with 227 to 228 °C. The compound `O=C(c1cccs1)c1cnn2c(-c3cccc(NC(=O)C4CC4)c3)ccnc12` came in with a melting point of 191 to 192 °C.

As for `COCCCOc1cc(CC(CC2C(OC(=O)OC(C)(C)C)CC(C(C)(C)O)C(=O)N2C(=O)OC(C)(C)C)C(C)C)ccc1OC` (stereo not drawn), the melting point is 118 to 119 °C.

`OCCn1cc(-c2cc3nccnc3[nH]2)c2ccccc21` returned a melting point of 272 to 273 °C. Take `O=C(c1c[nH]c2ncc(Br)nc12)C12CC3CC(CC(C3)C1)C2`: the melting point lay in the range of 279 to 280 °C.

`CCOC(=O)CCc1cn(Cc2ccc(OCc3nc(-c4ccco4)oc3C)cc2)nc1O` had a melting point of 145 to 146 °C. For the compound `CCOC(=O)c1nc2cc(Br)ccn2n1`, the melting point was 158 to 160 °C. `CCOc1cc2c(C)c(CCN3CCC(c4ccccc4)CC3)c(=O)oc2cc1OC`: the melting point was in the range of 195 to 196 °C. As for `O=C1C2CC(O)CCN2C(=O)N1c1ncc(Cl)cc1F` (stereo not drawn), the melting point was 183 to 185 °C. `O=C(Nc1ccc(F)c(C(F)(F)F)c1)N1COc2cc(OCc3ccccc3)ccc21` gave a melting point of 144 to 146 °C. `C#Cc1cccc(-c2nccc3nc(N)nn23)c1` yielded a melting point of 170 to 172 °C. Compound `CCCN1C(=O)COc2cc(F)c(N=c3sc(=S)n4n3CCCC4)cc21` yielded a melting point of 112 to 114 °C. Regarding `c1ccc(-n2nnc3c4ccccc4c(OCc4ccccn4)nc32)cc1`, the melting point was in the range of 147 to 150 °C. As for `CN1C(=O)CN=C(c2ccccc2F)c2c1ccc(N)c2Cl`, the melting point turned out to be 126 °C. `CC1(C)C2CC3CCC(=O)OC3C1C2` (stereo not drawn) had a melting point of 57 to 60 °C. In turn, `CN1C(=O)NC(c2ccccc2)c2cc3c(cc21)OCO3` (stereo not drawn) displayed a melting point of 228 to 230 °C.

Take `Cc1cc(-c2nncc3c(C(C)(C)C)c(O)nn23)no1`: the melting point fell in the range of 275 to 278 °C. The same measure for `COc1cccc(C(=O)OC(=C2C(=O)N(C(N)=O)c3cc(Cl)c(F)cc32)c2cccs2)c1`: 196 to 220 °C; for `Fc1ccc(Cn2c(NC3CCN(CCc4cn5ccccc5n4)CC3)nc3ccccc32)cc1`: 208 °C. Then `CCCCC/C(=C\C=C\C(=O)O)c1ccc(F)cc1`, with 116 to 118 °C; and `Nc1ncccc1OCc1c(F)cccc1Cl`, with 123 to 130 °C; and `COc1ccc2c(c1)c1c3c(c(-c4c(Cl)cccc4Cl)cc1n2CCC(=O)O)C(=O)NC3=O`, with 203 to 209 °C.

Consider `CC(CS)C(=O)N1CC2CCCCC2C1C(=O)O` (stereo not drawn), for which the melting point was in the range of 119 to 129 °C. `O=C1N=C(N2CCCC2)SC1=Cc1ccc(-c2cc(F)c(O)c(C34CC5CC(CC(C5)C3)C4)c2)s1` registered a melting point of 312 to 315 °C. Then `N#Cc1sc(C#N)c(Br)c1Br`, with 138 to 139 °C; and `CSCCCc1cc(F)c2ncc(C(=O)NCc3ccc(Cl)cc3)c(O)c2c1`, with 178 to 180 °C. `CCCCCc1cc2c(cc1C#C/C=C/C(C)=C/C(=O)O)C(C)(C)CCC2(C)C`: the melting point is 155 to 156 °C. `C#CCOc1cc(C2(C(F)(F)F)CC(=O)NC(OCC)=N2)c(F)cc1Br` (stereo not drawn) gave a melting point of 101 to 102 °C. The compound `ClCc1coc(-c2ccsc2)n1` gave a melting point of 91 to 92 °C. In the case of `O=C(Nc1cccc(S(=O)(=O)NCC(F)(F)F)c1)c1cnn2c(C(F)F)cc(-c3ccc(C(F)(F)F)cc3)nc12`, the melting point came to 257 °C. As to `Cc1c(-c2ccccc2)sc2nc(N3CCOCC3)[nH]c(=O)c12`, the melting point lay within 300 to 320 °C. The compound `CCCN(C)c1nn(C)c(=O)c2c1ccn2-c1c(C)cc(C)cc1C` displayed a melting point of 105 to 108 °C. Then `O=C(Cl)CC(c1ccccc1)(c1ccccc1)c1ccccc1`, with 182 °C; and `CC(=O)c1c(C)c2c(c(C)c1O)OC(C)(C)C(C)C2` (stereo not drawn), with 87 to 90 °C.

In turn, `COc1ccc(C(CCCCC(=O)O)C2=C(C)C(=O)c3ccccc3C2=O)cc1` (stereo not drawn) returned a melting point of 68 to 71 °C. Compound `CC1(C)Oc2ccc(C#N)cc2[C@@H](NC2=CC(=O)OC2)[C@@H]1O` (relative stereo) had a melting point of 182 °C. `Cc1c(C(=O)O)oc2cc(SC(=O)N(C)C)ccc12`: the melting point was in the range of 188 to 190 °C. Then `CCCCCCC/C=C/C(=O)NC`, with 60 to 63 °C; and `CC(C)c1nc2ccccc2cc1S(=O)(=O)c1ccc(O)cc1`, with 185 °C. Regarding `CCCC1=C(C#N)C(c2ccccc2Cl)c2c(n[nH]c2CCC)N1` (stereo not drawn), the melting point stood at 237 °C. Turning to `CCC1CC2C3CCC4=CC(=O)CCC4=C3C=CC2(C)C1O` (stereo not drawn), the melting point was in the range of 139 to 141 °C. Compound `CCOC(=O)CCCCn1c(=O)[nH]c2ccsc2c1=O` yielded a melting point of 116 to 117 °C.

In turn, `CCOc1ccc(N(c2ccccc2)C2(c3ccc(N(CC)Cc4ccccc4)cc3)OC(=O)c3cc(N(C)C)ccc32)cc1` (stereo not drawn) gave a melting point of 148 to 152 °C. In turn, `CCCOc1ccccc1-c1cccc(=O)[nH]1` came in with a melting point of 134 to 136 °C. In the case of `O=[N+]([O-])c1ccc(Nc2cccc(-n3cccc3)c2)c([N+](=O)[O-])c1`, the melting point lay in the range of 116 to 118 °C. `COc1ccccc1-c1ccccc1C1=NC(C)(C)CO1` came in with a melting point of 129 to 131 °C. Regarding `CC(C)(C)OC(=O)C[C@H](NC(=O)CNC(=O)c1csc(NC(=O)NCc2ccccn2)n1)C(=O)NCc1ccccn1`, the melting point is 112 °C. As for `O=C(CCC1CCCCCCCCCCC1)C1=C(O)COC1=O`, the melting point lay in the range of 99 to 102 °C. `CCCCCSc1cccc(-c2nc(=O)c3ccccc3s2)n1` had a melting point of 105 °C. As for `CC(C)(C)C(=O)c1c(CC(C)(C)C(=O)O)n(Cc2ccc(Cl)cc2)c2ccc(OCc3ccc4sccc4n3)cc12`, the melting point was in the range of 193 to 194 °C. In turn, `CC(=O)Nc1ccc(CN(C)C2CCOCC2)cc1` yielded a melting point of 105 to 106 °C. Then `CCCc1ccc([C@H]2CC[C@H](O)CC2)cc1`, with 78.2 to 80 °C; and `CC(C)OC(=O)NC(=O)C(c1ccccc1)c1ccccc1`, with 122 to 124 °C.

`COC(=S)NC1(N=NC(C)(C)C)CCCCC1` showed a melting point of 79 to 82 °C. The same measure for `OC(CCCn1ccnc1)c1ccc(Cl)cc1Cl` (stereo not drawn): 91.5 to 94 °C; for `CCCC(=O)Nc1cc(C(F)(F)F)ccc1SCC#N`: 88.5 to 89.5 °C; for `O=C(O)C(NS(=O)(=O)c1ccc(Cl)cc1)C1CCCCC1` (stereo not drawn): 120 to 128 °C. `CCc1cc2c(NCc3ccccc3)ncnc2s1` displayed a melting point of 128 to 131 °C. The compound `CCN1C(=O)Cc2cc(C=O)ccc21` gave a melting point of 126 to 127 °C.

`O=C(O)C(Nc1ccc2ccccc2c1)c1c(Cl)cccc1Cl` (stereo not drawn) displayed a melting point of 94.5 °C. The same measure for `C=CCNC(=O)N1CC(OCc2ccc(Cl)c(Cl)c2)C1`: 88 to 89 °C. Consider `C=C(C)Cc1cc(C=O)cc(OC)c1O`, for which the melting point was in the range of 53 to 54 °C. As for `Cc1ccc(-c2ccccc2C(=O)Nc2ccc(C(=O)N3C[C@@H]4CCCN4C(=S)c4ccccc43)cc2)cc1`, the melting point is 140 to 145 °C.

`COc1ccc2ccnc(Cl)c2c1` had a melting point of 77 to 78 °C. `O=C(O)c1cn(C2COC2)c2cc(F)c(F)cc2c1=O` gave a melting point of 255 to 256 °C.

`Cc1cc2c(s1)SCCc1cc(=O)n(-c3ccc(Cl)cc3)nc1-2`: the melting point fell in the range of 150 to 151 °C. In turn, `CN(C)CCCn1c2c(c3ccccc31)CCS(=O)(=O)CCC2` came in with a melting point of 119 to 120 °C.
